21 compounds from US12325709B2, “Cannabinoid derivatives” (CANOPY GROWTH CORPORATION, priority 2019, dated 2025) can be followed below.

Experiment [1] addresses T1, human CB1 receptor (Homo sapiens, UniProt P21554).
T1 construct: host or cells: CHO-K1 (Chinese hamster ovary) cells, stably transfected; membranes prepared in house
The experiment in a line: CB1 radioligand competitive binding assay ([3H]CP 55,940 displacement). Conditions: for Selectivity CB1: fold difference in binding between CB1 and CB2, shown in column of receptor with higher affinity, 1.00 in both = about the same affinity.

Experiment [2] has as its target T2, human CB2 receptor (Homo sapiens, UniProt P34972).
T2 construct: host or cells: CHO-K1 (Chinese hamster ovary) cells, stably transfected; membranes prepared in house
The experiment in a line: CB2 radioligand competitive binding assay ([3H]CP 55,940 displacement). Conditions: for Selectivity CB2: fold difference in binding between CB1 and CB2, shown in column of receptor with higher affinity, 1.00 in both = about the same affinity. The method, then: Compounds of the present disclosure were tested for CB1 receptor binding affinity and for CB2 receptor binding affinity. As used herein, “binding affinity” is represented by the IC50 value, which was experimentally determined as described herein. The lower the IC50 value the higher the binding affinity.
The membranes were prepared from CHO-K1 (Chinese hamster ovary) cells stably transfected with the human CB2 receptor (Cat. #ES-111-C; Perkin Elmer, Boston, MA). The cells were grown adherently and maintained in Ham's F12 medium containing 10% fetal bovine serum (FBS), penicillin, streptomycin and geneticin (G418) at 37° C. in a humid atmosphere of 5% CO2 following the manufacturer's instructions.
For membrane preparation the cells were washed with PBS and scraped off the plates in cold homogenization buffer (25 mM HEPES (pH 7.4), 2 mM EDTA) containing protease inhibitor cocktail (Sigma Cat. #P8340). The cell suspension was homogenized with a Pro-PK-01200D Polytron Homogenizer (Pro Scientific) and then centrifuged for 30 min at 120,000×g. The supernatant was discarded and the pellet was re-suspended in the homogenization buffer and stored at −80° C. until the time of use.
In this experiment, 3H radiolabeled CP 55,940, i.e. [3H]CP 55,940 (Perkin Elmer, Boston, MA), was used as a radioligand for the CB2 receptor to determine the binding affinity of compounds for the CB2 receptor (Scheme 3; above).
The competition binding experiments (single dose and dose-response) were performed by incubating 0.6 nM of [3H]CP55,940 (specific activity 101 Ci/mmol, Perkin Elmer) and different concentrations of compounds disclosed herein with membranes prepared as above from CHO-K1 cells expressing human CB2 receptor (1 μg of protein/well), 50 mM Tris-HCl (pH 7.4), 5 mM MgCl2, 1 mM CaCl2, and 2 mg/mL BSA.
For the dose-response experiments the test compounds were sequentially diluted to provide the desired concentration range for the IC50 determination. In each case the compounds were pre-incubated with the membrane for 20 min, before adding the radioligand.
After incubation with the radioligand for 60 min at 37° C., the incubation was terminated by rapid filtration of assay mixture through MultiScreen®HTS^+ 96-well filter plates (Millipore, Cat. #MSFCNXB), pre-soaked for 60 min with 50 mM Tris-HCl (pH 7.4) containing 0.33% polyethylenimine (PEI). The nonspecific binding (NSB) was determined in the presence of 10 μM unlabelled CP55,940. After drying the filter plate at 50° C. for at least 60 min, the filter-bound radioactivity was determined by scintillation spectrometry using the 1450 MicroBeta Plate Counter (Perkin Elmer, Boston, MA).

Molecules are shown by their SMILES.

T1 sequence (P21554 whole entry): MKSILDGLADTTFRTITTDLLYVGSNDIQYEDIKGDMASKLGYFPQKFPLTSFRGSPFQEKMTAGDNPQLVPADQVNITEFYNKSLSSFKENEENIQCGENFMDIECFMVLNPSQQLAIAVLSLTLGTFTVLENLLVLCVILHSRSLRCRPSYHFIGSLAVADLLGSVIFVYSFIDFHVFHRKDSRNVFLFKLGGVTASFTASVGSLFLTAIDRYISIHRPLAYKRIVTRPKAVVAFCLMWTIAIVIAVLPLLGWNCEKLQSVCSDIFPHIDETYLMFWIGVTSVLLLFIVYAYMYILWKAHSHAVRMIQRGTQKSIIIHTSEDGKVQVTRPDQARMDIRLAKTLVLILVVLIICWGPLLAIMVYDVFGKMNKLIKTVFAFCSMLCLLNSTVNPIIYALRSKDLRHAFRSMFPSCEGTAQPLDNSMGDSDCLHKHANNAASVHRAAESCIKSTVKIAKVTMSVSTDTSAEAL
T2 sequence (P34972 whole entry): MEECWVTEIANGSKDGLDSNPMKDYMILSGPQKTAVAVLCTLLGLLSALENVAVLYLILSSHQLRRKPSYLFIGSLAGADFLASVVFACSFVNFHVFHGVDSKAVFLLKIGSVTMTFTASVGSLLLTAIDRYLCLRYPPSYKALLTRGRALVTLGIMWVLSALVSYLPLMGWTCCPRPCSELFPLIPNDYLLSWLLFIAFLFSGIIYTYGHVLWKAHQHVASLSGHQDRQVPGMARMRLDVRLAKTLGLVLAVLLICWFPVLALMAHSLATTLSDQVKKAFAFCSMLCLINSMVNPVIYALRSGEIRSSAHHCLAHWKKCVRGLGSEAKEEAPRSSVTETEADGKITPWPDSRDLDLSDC

One may read the IC50 as the midpoint of a concentration-inhibition curve. Turning to `CCCc1c(CN(C)C(=O)OC)c(O)c(C2C=C(C)CCC2)c(O)c1CN(C)C(=O)OC` (stereo not shown) [59′c, dimethyl ((2,6-dihydroxy-5′-methyl-4-propyl-1′,2′,3′,4′-tetrahydro-[1,1′-biphenyl]-3,5-diyl)bis(methylene))bis(methylcarbamate)], the IC50 in experiment [1] was in the range of 1 to 4.99 µM; in experiment [2] it was 0.1 to 0.99 µM. In experiment [2], the “Selectivity CB2” value is 3.25 fold.
In turn, `CCCCCc1cc(O)c(C2C=C(C)CCC2)c(O)c1C(=O)NC` (stereo not shown) [Compound 1c, 2,6-dihydroxy-N,5′-dimethyl-4-pentyl-1′,2′,3′,4′-tetrahydro-[1,1′-biphenyl]-3-carboxamide] yielded a concentration for half-maximal inhibition (IC50) in experiment [1] of more than 5 µM. In addition, in experiment [2], the IC50 lay in the range of 1 to 4.99 µM and the “Selectivity CB2” value turned out to be 3.20 fold.
For `C=C(C)[C@@H]1CCC(C)=C[C@H]1c1c(O)cc(CCCCC)c(C(=O)NC)c1O` [Compound 1d, 2,6-dihydroxy-N,5′-dimethyl-4-pentyl-2′-(prop-1-en-2-yl)-1′,2′,3′,4′-tetrahydro-[1,1′-biphenyl]-3-carboxamide], in experiment [1], the IC50 was 1 to 4.99 µM. In experiment [2], the half-maximal inhibitory concentration (IC50) is 0.1 to 0.99 µM and the “Selectivity CB2” value is reported as 1.26 fold.
In the case of `C=C(C)[C@@H]1CCC(C)=C[C@H]1c1c(O)cc(CCCCC)c(C(=O)NCC)c1O` [Compound 3d, N-ethyl-2,6-dihydroxy-5′-methyl-4-pentyl-2′-(prop-1-en-2-yl)-1′,2′,3′,4′-tetrahydro-[1,1′-biphenyl]-3-carboxamide], the IC50 in experiment [1] and in experiment [2] was 1 to 4.99 µM each time. Further, the “Selectivity CB2” value in experiment [2] was determined as 1.80 fold.
In experiment [1], `CCCCCc1cc(O)c(C2C=C(C)CCC2)c(O)c1C(=O)NC1CC1` (stereo not shown) [Compound 6c, N-cyclopropyl-2,6-dihydroxy-5′-methyl-4-pentyl-1′,2′,3′,4′-tetrahydro-[1,1′-biphenyl]-3-carboxamide] had an IC50 of 1 to 4.99 µM. In experiment [2], the IC50 was less than 0.1 µM and the “Selectivity CB2” value is recorded as 40.14 fold.
For the compound `C=C(C)[C@@H]1CCC(C)=C[C@H]1c1c(O)cc(CCCCC)c(C(=O)NC2CC2)c1O` [Compound 6d, N-cyclopropyl-2,6-dihydroxy-5′-methyl-4-pentyl-2′-(prop-1-en-2-yl)-1′,2′,3′,4′-tetrahydro-[1,1′-biphenyl]-3-carboxamide], the IC50 in experiment [1] is more than 5 µM. Besides, in experiment [2], the 50% inhibitory concentration (IC50) lay within 1 to 4.99 µM and the “Selectivity CB2” value stood at 9.09 fold.
For `CCCCCc1cc(O)c(C2C=C(C)CCC2)c(O)c1C(=O)NC1CCCC1` (stereo not shown) [Compound 7c, N-cyclopentyl-2,6-dihydroxy-5′-methyl-4-pentyl-1′,2′,3′,4′-tetrahydro-[1,1′-biphenyl]-3-carboxamide], in that order: 0.1 to 0.99 µM, less than 0.1 µM and 188.10 fold.
Compound `C=C(C)[C@@H]1CCC(C)=C[C@H]1c1c(O)cc(CCCCC)c(C(=O)Nc2ccc(OC)cc2)c1O` [Compound 11d, 2,6-dihydroxy-N-(4-methoxyphenyl)-5′-methyl-4-pentyl-2′-(prop-1-en-2-yl)-1′,2′,3′,4′-tetrahydro-[1,1′-biphenyl]-3-carboxamide] had an IC50 in experiment [1] of 1 to 4.99 µM. In experiment [2], the IC50 fell in the range of 0.1 to 0.99 µM and the “Selectivity CB2” value is 3.11 fold.
As for `CCCCCc1cc(O)c(C2C=C(C)CCC2)c(O)c1C(=O)NCc1ccccc1` (stereo not shown) [Compound 14c, N-benzyl-2,6-dihydroxy-5′-methyl-4-pentyl-1′,2′,3′,4′-tetrahydro-[1,1′-biphenyl]-3-carboxamide], the IC50 in experiment [1] is 1 to 4.99 µM; in experiment [2] it was less than 0.1 µM. For the same compound, in experiment [2], the “Selectivity CB2” value is 1300.00 fold.
`C=C(C)C1CCC(C)=CC1c1c(O)cc(CCCCC)c(C(=O)NCc2ccccc2)c1O` (stereo not shown) [Compound 14d, N-benzyl-2,6-dihydroxy-5′-methyl-4-pentyl-2′-(prop-1-en-2-yl)-1′,2′,3′,4′-tetrahydro-[1,1′-biphenyl]-3-carboxamide]: the IC50 is more than 5 µM in experiment [1] and 1 to 4.99 µM in experiment [2]. The “Selectivity CB2” value in experiment [2] stood at 13.50 fold.
On to `CCCCCc1cc(O)c(-c2cccc(C)c2)c(O)c1C(=O)NCc1cccnc1` [Compound 15a, 2,6-dihydroxy-3′-methyl-4-pentyl-N-(pyridin-3-ylmethyl)-[1,1′-biphenyl]-3-carboxamide], for which, in experiment [1], the IC50 is more than 5 µM. Moreover, in experiment [2], the IC50 lay in the range of 0.1 to 0.99 µM and the “Selectivity CB2” value was found to be 17.62 fold.
As to `CCCCCc1cc(O)c(C2C=C(C)CCC2)c(O)c1C(=O)NCc1cccnc1` (stereo not shown) [Compound 15c, 2,6-dihydroxy-5′-methyl-4-pentyl-N-(pyridin-3-ylmethyl)-1′,2′,3′,4′-tetrahydro-[1,1′-biphenyl]-3-carboxamide], the IC50 in experiment [1] is 1 to 4.99 µM. Besides, in experiment [2], the IC50 is less than 0.1 µM and the “Selectivity CB2” value was determined as 23.17 fold.
Consider `C=C(C)[C@@H]1CCC(C)=C[C@H]1c1c(O)cc(CCCCC)c(C(=O)NCc2cccnc2)c1O` [Compound 15d, 2,6-dihydroxy-5′-methyl-4-pentyl-2′-(prop-1-en-2-yl)-N-(pyridin-3-ylmethyl)-1′,2′,3′,4′-tetrahydro-[1,1′-biphenyl]-3-carboxamide], for which, in experiment [1], the IC50 was 0.1 to 0.99 µM and the “Selectivity CB1” value was found to be 2.48 fold. In addition, the IC50 in experiment [2] lay within 0.1 to 0.99 µM.
With `C=CCNC(=O)c1c(CCCCC)cc(O)c(C2C=C(C)CCC2)c1O` (stereo not shown) [Compound 25c, N-allyl-2,6-dihydroxy-5′-methyl-4-pentyl-1′,2′,3′,4′-tetrahydro-[1,1′-biphenyl]-3-carboxamide], the IC50 in experiment [1] fell in the range of 1 to 4.99 µM. In experiment [2], the IC50 lay in the range of 0.1 to 0.99 µM and the “Selectivity CB2” value amounted to 16.53 fold.
Consider `CCCCCc1cc(O)c(C2C=C(C)CCC2)c(O)c1C(=O)N1CCn2cnnc2C1` (stereo not shown) [Compound 34c, (5,6-dihydro-[1,2,4]triazolo[4,3-a]pyrazin-7(8H)-yl)(2,6-dihydroxy-5′-methyl-4-pentyl-1′,2′,3′,4′-tetrahydro-[1,1′-biphenyl]-3-yl)methanone], for which, in experiment [1], the IC50 is more than 5 µM and the “Selectivity CB1” value was found to be 1.00 fold. In experiment [2], the IC50 was more than 5 µM and the “Selectivity CB2” value was determined as 1.00 fold.
The compound `CCCCCc1cc(O)c(C2C=C(C)CCC2)c(O)c1C(=O)N1CCN(S(C)(=O)=O)CC1` (stereo not shown) [Compound 37c, (2,6-dihydroxy-5′-methyl-4-pentyl-1′,2′,3′,4′-tetrahydro-[1,1′-biphenyl]-3-yl)(4-(methylsulfonyl)piperazin-1-yl)methanone] had a 50% inhibitory concentration (IC50) in experiment [1] of more than 5 µM. In experiment [2], the IC50 was 0.1 to 0.99 µM and the “Selectivity CB2” value turned out to be 66.67 fold.
`CCCCCc1cc(O)c(-c2cccc(C)c2)c(O)c1C(=O)N1CCOCC1` [Compound 39a, (2,6-dihydroxy-3′-methyl-4-pentyl-[1,1′-biphenyl]-3-yl)(morpholino)methanone] returned a 50% inhibitory concentration (IC50) in experiment [1] of more than 5 µM. For the same compound, in experiment [2], the IC50 was more than 5 µM and the “Selectivity CB2” value is listed as 3.70 fold.
Take `CCCCCc1cc(O)c(C2C=C(C)CCC2)c(O)c1C(=O)N1CCOCC1` (stereo not shown) [Compound 39c, (2,6-dihydroxy-5′-methyl-4-pentyl-1′,2′,3′,4′-tetrahydro-[1,1′-biphenyl]-3-yl)(morpholino)methanone]: the IC50 in experiment [1] and in experiment [2] was 1 to 4.99 µM in each case. Also, the “Selectivity CB2” value in experiment [2] is 3.20 fold.
Take `C=C(C)[C@@H]1CCC(C)=C[C@H]1c1c(O)cc(CCCCC)c(C(=O)N2CCOCC2)c1O` [Compound 39d, (2,6-dihydroxy-5′-methyl-4-pentyl-2′-(prop-1-en-2-yl)-1′,2′,3′,4′-tetrahydro-[1,1′-biphenyl]-3-yl)(morpholino)methanone]: in experiment [1], the half-inhibitory concentration (IC50) is more than 5 µM. Moreover, in experiment [2], the half-inhibitory concentration (IC50) lay within 1 to 4.99 µM and the “Selectivity CB2” value is 3.49 fold.
In experiment [1], `CCCCCc1cc(O)c(C2C=C(C)CCC2)c(O)c1C(=O)N1CCCC1` (stereo not shown) [Compound 41c, (2,6-dihydroxy-5′-methyl-4-pentyl-1′,2′,3′,4′-tetrahydro-[1,1′-biphenyl]-3-yl)(pyrrolidin-1-yl)methanone] displayed an IC50 of more than 5 µM. Besides, in experiment [2], the IC50 lay within 1 to 4.99 µM and the “Selectivity CB2” value turned out to be 13.31 fold.
In experiment [1], `CCCCCc1cc(O)c(C2C=C(C)CCC2)c(O)c1C(=O)NCc1ccccc1Br` (stereo not shown) [Compound 57c, N-(2-bromobenzyl)-2,6-dihydroxy-5′-methyl-4-pentyl-1′,2′,3′,4′-tetrahydro-[1,1′-biphenyl]-3-carboxamide] displayed an IC50 of 1 to 4.99 µM. Further, in experiment [2], the IC50 was less than 0.1 µM and the “Selectivity CB2” value turned out to be 21.67 fold.
